Measured values from PMC12033364, “Emergence of transferable daptomycin resistance in Gram-positive bacteria” (npj Antimicrobials and Resistance, 2025).

Tests used:
S. aureus RN4220 = experiment: DAP MIC, micro-broth dilution, plasmid-carrying strains; format: cell-based, Staphylococcus aureus; settings: MH + 50 µg/mL CaCl2, 18 h 37 °C, three biological replicates
Method: (§1) Bacteria were grown in Muller-Hinton broth (MH) (Carl Roth GmbH + Co. KG, Karlsruhe, Germany) and over-night cultures supplemented with antibiotics when required. […] For transcription profiling experiments, bacteria were exposed to 128 µg/mL DAP for 30 min. All strains, except bacilli (30 °C), were incubated at 37 °C.
(§2) Recombinant plasmids (Table S1) were generated by in vitro E. coli cloning method, employing shuttle vector pCG248 as backbone and E. coli DC10B as host. After recovery from E. coli, recombinant plasmids were transformed into S. aureus or B. subtilis via electroporation.
(§3) The cultures were adjusted to 5 × 10^5 CFU/mL and transferred to a 96-well flat bottom microtiter plate (Greiner Bio-One GmbH, Frickenhausen, Germany). 100 ng/mL anhydrotetracycline (ATc) (Carl Roth GmbH + Co. KG, Karlsruhe, Germany) was added if required; ATc-containing plates were stored in the dark. Plates were incubated for 18 h at 37 °C (24 h at 30 °C for bacilli) under static conditions. Afterwards, the OD595 was measured to determine the MIC according to EUCAST guidelines.

S. aureus USA300 LAC* = experiment: DAP MIC, micro-broth dilution, plasmid-carrying MRSA strains; format: cell-based, Staphylococcus aureus; settings: MH + 50 µg/mL CaCl2, 18 h 37 °C, three biological replicates
Method: as §1, §2, §3

B. subtilis 168 = experiment: DAP MIC, micro-broth dilution, plasmid-carrying strains; format: cell-based, Bacillus subtilis
Method: as §1, §2, §3

[1] = tested on: drcA and drcB (TS92_00079, TS92_00080) in M. sciuri TS92; experiment: Transcription profiling (RNA-Seq) upon DAP exposure; format: cell-based, Mammaliicoccus sciuri; settings: M. sciuri TS92 exposed to 128 µg/mL DAP for 30 min, three biological replicates, DESeq2
Method: An overnight culture of M. sciuri TS92 was diluted in fresh MH to an optical density at 600 nm (OD600) of 0.05 and grown to OD600 0.5. The culture was split into 10 mL each aliquots and incubated in the absence and presence of 128 µg/mL DAP for 30 min. Subsequently, total RNA extraction was performed as described previously.
RNA was isolated from three biological replicates. RNA quality was checked using a 2100 Bioanalyzer with the RNA 6000 Nano Kit (Agilent Technologies, Santa Clara, USA). cDNA libraries suitable for sequencing were prepared from 1000 ng of total RNA after DNase I treatment (Thermo Fisher, Darmstadt, Germany). […] The number of PCR cycles was determined at 14 by qPCR and the elongation time was set to 15 s. Libraries were quantified by Qubit^TM dsDNA HS Assay Kit and Qubit^TM 3.0 Fluorometer (ThermoFisher), and quality was checked using 2100 Bioanalyzer with the High Sensitivity DNA Kit (Agilent Technologies) before pooling. Sequencing of pooled libraries, spiked with 5% PhiX control library, was performed at ~11–15 million reads per sample in single-end mode with 75 nucleotide read length on the NextSeq 500 platform (Illumina, San Diego, CA, USA). […] Afterwards, the pipeline READemption v0.4.5[59] was applied to align all reads longer than 11 nt (-l 12) to our de novo assembled M. sciuri TS92 genome using segemehl v0.2.0[60] with an accuracy cut-off of 95% (-a 95). […]

[2] = tested on: Enterococcus faecalis CVM N59689F; settings: E. faecalis CVM N59689F, drc-carrying isolate from market swine; cited from earlier work
Excerpt: Table 1 Detection of the drc locus (drcRS/drcAB) in staphylococci and enterococci | column: DAP MIC (µg/mL) || Another bottleneck in clinical AMR development is that AMR genes from environmental microorganisms must gain access to pathogenic species. This requires donors and recipients to come into close physical contact, which is often challenging as pathogenic and environmental species rarely share the same ecological niche. In this respect, M. sciuri may play a crucial role in drc acquisition and spread. Due to its dual lifestyle as a soil bacterium and animal commensal, M. sciuri comes into contact with both the soil resistome and commensal bacteria associated with warm-blooded hosts, making M. sciu ...

CCCCCCCCCC(=O)N[C@@H](Cc1c[nH]c2ccccc12)C(=O)N[C@H](CC(N)=O)C(=O)N[C@@H](CC(=O)O)C(=O)N[C@@H]1C(=O)NCC(=O)N[C@@H](CCCN)C(=O)N[C@@H](CC(=O)O)C(=O)N[C@H](C)C(=O)N[C@@H](CC(=O)O)C(=O)NCC(=O)N[C@H](CO)C(=O)N[C@@H]([C@H](C)CC(=O)O)C(=O)N[C@@H](CC(=O)c2ccccc2N)C(=O)O[C@@H]1C [DAP, Daptomycin]
DAP MIC (S. aureus RN4220; S. aureus RN4220_Pxyl/tet-drcAB + ATc (100 ng/mL, induced)): 64 mg/L | DAP MIC (S. aureus RN4220; S. aureus RN4220_drcRS/drcAB (entire drc locus, native drcRS control, plasmid)): 64 mg/L | DAP MIC (S. aureus RN4220; S. aureus RN4220_empty vector control): 1 mg/L | DAP MIC (S. aureus USA300 LAC*; S. aureus USA300 LAC*_Pxyl/tet-drcAB + ATc (induced)): 32 mg/L | DAP MIC (S. aureus USA300 LAC*; S. aureus USA300 LAC*_drcRS/drcAB (entire drc locus on plasmid)): 128 mg/L | DAP MIC (S. aureus USA300 LAC*; S. aureus USA300 LAC*_empty vector control): 1 mg/L | DAP MIC (B. subtilis 168; B. subtilis 168_Pxyl/tet-drcAB + ATc (induced), MH + 50 µg/mL CaCl2, 24 h 30 °C, three biological replicates): 16 mg/L | DAP MIC (B. subtilis 168; B. subtilis 168_drcRS/drcAB (entire drc locus on plasmid), MH + 50 µg/mL CaCl2, 24 h 30 °C, three biological replicates): > 256 mg/L | DAP MIC (B. subtilis 168; B. subtilis 168 as worded in the text, before induction of drcAB expression): 2 mg/L | up-regulation of drcA and drcB transcription upon DAP exposure versus untreated control [1]: 128 fold change | DAP MIC [2]: >16 mg/L
